Data: patent publication US10499642B2, “Isoxazoline-substituted benzamides and analogues as insecticides” (SYNGENTA PARTICIPATIONS AG, priority 2015, dated 2019)
Read-outs that look alike come from different tables or passages of the source.

Key:
Assay type in all cases: in vivo
Spodoptera littoralis = Spodoptera littoralis (Egyptian cotton leaf worm) cotton leaf disc test; details: foliar, 72 h, read-out: control (at least one of mortality, anti-feedant effect, and growth inhibition)
Summary of the method: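 Five first-instar larvae per disc were placed on dried, sprayed cotton leaf discs held on agar. Test solutions were aqueous, made from 10′000 ppm DMSO stocks. At day 3, control was counted when mortality, feeding deterrence or growth inhibition exceeded the untreated discs.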

Plutella xylostella = Plutella xylostella (diamond back moth) artificial diet test; details: 120 h, read-out: effect in at least one of the two categories (mortality or growth inhibition)
Summary of the method: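 At a 200 ppm rate, test solutions were applied to artificial diet and allowed to dry before second-instar larvae were added. Five days later, larval mortality and growth inhibition were rated against untreated samples.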

Diabrotica Balteata = test: Diabrotica balteata (corn root worm) maize sprout test; details: 96 h, read-out: effect in at least one of the two categories (mortality or growth inhibition)
Summary of the method: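 Scoring covered both mortality and growth inhibition relative to untreated controls, 4 days post-infestation. Test solutions at 200 ppm, diluted in water from 10′000 ppm DMSO stocks, were sprayed onto agar-held maize sprouts, which after drying received 6 to 10 L2 larvae each well.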

Thrips tabaci = Thrips tabaci (onion thrips) sunflower leaf disc test; details: foliar, 144 h
Protocol: Thrips tabaci (Onion Thrips):
(§1) Sunflower leaf discs were placed on agar in 24-well microtiter plates and sprayed with aqueous test solutions prepared from 10′000 ppm DMSO stock solutions. After drying the leaf discs were infested with a thrips population of mixed ages. The samples were assessed for mortality 6 days after infestation.

Tetranychus urticae = Tetranychus urticae (two-spotted spider mite) bean leaf disc test; details: foliar, 192 h
Protocol: Tetranychus urticae (Two-Spotted Spider Mite):
as §1, with “Bean” for “Sunflower”, “discs” for “discs were placed”, “were” for “and”, “mite” for “thrips”, “on mixed population (mobile stages) 8” for “6”

Myzus persicae = Myzus persicae (green peach aphid) sunflower leaf disc test; details: foliar, 144 h
Protocol: Myzus persicae (Green Peach Aphid):
Sunflower leaf discs were placed on agar in a 24-well microtiter plate and sprayed with test solutions at an application rate of 200 ppm. After drying, the leaf discs were infested with an aphid population of mixed ages. After an incubation period of 6 days after treatment, samples were checked for mortality. The following compounds gave at least 80% mortality of Myzus persicae: […]

[1] = application rate 200 ppm, cotton leaf discs, L1 larvae, 3 days after infestation
[2] = application rate 200 ppm, artificial diet, L2 larvae, 5 days after infestation
[3] = application rate 200 ppm, maize sprouts, L2 larvae, 4 days after infestation
[4] = application rate 200 ppm, sunflower leaf discs, population of mixed ages, 6 days after infestation, read-out: mortality
[5] = application rate 200 ppm, bean leaf discs, mixed population (mobile stages), 8 days after infestation, read-out: mortality
[6] = application rate 200 ppm, sunflower leaf discs, population of mixed ages, 6 days after treatment, read-out: mortality

CC1=NOC(N(C=O)C(=O)c2ccc(C3=NO[C@@](c4cc(Cl)c(F)c(Cl)c4)(C(F)(F)F)C3)cc2Cl)C1 (stereo partly drawn) [Compound A033, 2-chloro-4-[(5S)-5-(3,5-dichloro-4-fluoro-phenyl)-5-(trifluoromethyl)-4H-isoxazol-3-yl]-N-formyl-N-(3-methyl-4,5-dihydroisoxazol-5-yl)benzamide]
≥ 80%: percent control (mortality, anti-feedant effect or growth inhibition) at 200 ppm (Spodoptera littoralis) | percent effect (mortality or growth inhibition) at 200 ppm (Plutella xylostella) | percent effect (mortality or growth inhibition) at 200 ppm (Diabrotica Balteata) | mortality at 200 ppm (Thrips tabaci) | mortality at 200 ppm (Tetranychus urticae) | mortality at 200 ppm (Myzus persicae)

CC1=NOC(N(C=O)C(=O)c2ccc(C3=NO[C@@](c4cc(Cl)c(F)c(Cl)c4)(C(F)(F)F)C3)cc2Br)C1 (stereo partly drawn) [Compound A034, 2-bromo-4-[(5S)-5-(3,5-dichloro-4-fluoro-phenyl)-5-(trifluoromethyl)-4H-isoxazol-3-yl]-N-formyl-N-(3-methyl-4,5-dihydroisoxazol-5-yl)benzamide]
≥ 80%: percent control (mortality, anti-feedant effect or growth inhibition) at 200 ppm (Spodoptera littoralis) | percent effect (mortality or growth inhibition) at 200 ppm (Plutella xylostella) | percent effect (mortality or growth inhibition) at 200 ppm (Diabrotica Balteata) | mortality at 200 ppm (Thrips tabaci) | mortality at 200 ppm (Tetranychus urticae) | mortality at 200 ppm (Myzus persicae)

CC1=NOC(N(C=O)C(=O)c2ccc(C3=NO[C@@](c4cc(Cl)c(Cl)c(Cl)c4)(C(F)(F)F)C3)cc2Br)C1 (stereo partly drawn) [Compound A035, 2-bromo-N-formyl-N-(3-methyl-4,5-dihydroisoxazol-5-yl)-4-[(5S)-5-(3,4,5-trichlorophenyl)-5-(trifluoromethyl)-4H-isoxazol-3-yl]benzamide]
≥ 80%: percent control (mortality, anti-feedant effect or growth inhibition) at 200 ppm (Spodoptera littoralis) | percent effect (mortality or growth inhibition) at 200 ppm (Plutella xylostella) | percent effect (mortality or growth inhibition) at 200 ppm (Diabrotica Balteata) | mortality at 200 ppm (Thrips tabaci) | mortality at 200 ppm (Tetranychus urticae) | mortality at 200 ppm (Myzus persicae)

CC1=NOC(NC(=O)c2ccc(C3=NO[C@@](c4cc(Cl)c(F)c(Cl)c4)(C(F)(F)F)C3)cc2Br)C1 (stereo partly drawn) [Compound A036, 2-bromo-4-[(5S)-5-(3,5-dichloro-4-fluoro-phenyl)-5-(trifluoromethyl)-4H-isoxazol-3-yl]-N-(3-methyl-4,5-dihydroisoxazol-5-yl)benzamide]
≥ 80%: percent control (mortality, anti-feedant effect or growth inhibition) at 200 ppm (Spodoptera littoralis) | percent effect (mortality or growth inhibition) at 200 ppm (Plutella xylostella) | percent effect (mortality or growth inhibition) at 200 ppm (Diabrotica Balteata) | mortality at 200 ppm (Thrips tabaci) | mortality at 200 ppm (Tetranychus urticae) | mortality at 200 ppm (Myzus persicae)

CC1=NOC(NC(=O)c2ccc(C3=NO[C@@](c4cc(Cl)c(Cl)c(Cl)c4)(C(F)(F)F)C3)cc2Br)C1 (stereo partly drawn) [Compound A037, 2-bromo-N-(3-methyl-4,5-dihydroisoxazol-5-yl)-4-[(5S)-5-(3,4,5-trichlorophenyl)-5-(trifluoromethyl)-4H-isoxazol-3-yl]benzamide]
≥ 80%: percent control (mortality, anti-feedant effect or growth inhibition) at 200 ppm (Spodoptera littoralis) | percent effect (mortality or growth inhibition) at 200 ppm (Plutella xylostella) | percent effect (mortality or growth inhibition) at 200 ppm (Diabrotica Balteata) | mortality at 200 ppm (Thrips tabaci) | mortality at 200 ppm (Tetranychus urticae) | mortality at 200 ppm (Myzus persicae)

CC1=NOC(NC(=O)c2ccc(C3=NO[C@@](c4cc(Cl)c(F)c(Cl)c4)(C(F)(F)F)C3)cc2Cl)C1 (stereo partly drawn) [Compound A038, 2-chloro-4-[(5S)-5-(3,5-dichloro-4-fluoro-phenyl)-5-(trifluoromethyl)-4H-isoxazol-3-yl]-N-(3-methyl-4,5-dihydroisoxazol-5-yl)benzamide]
≥ 80%: percent control (mortality, anti-feedant effect or growth inhibition) at 200 ppm (Spodoptera littoralis) | percent effect (mortality or growth inhibition) at 200 ppm (Plutella xylostella) | percent effect (mortality or growth inhibition) at 200 ppm (Diabrotica Balteata) | mortality at 200 ppm (Thrips tabaci) | mortality at 200 ppm (Tetranychus urticae) | mortality at 200 ppm (Myzus persicae)

CC1=NOC(N(C=O)C(=O)c2ccc(C3=NO[C@@](c4cc(Cl)cc(C(F)(F)F)c4)(C(F)(F)F)C3)cc2C)C1 (stereo partly drawn) [Compound A039, 4-[(5S)-5-[3-chloro-5-(trifluoromethyl)phenyl]-5-(trifluoromethyl)-4H-isoxazol-3-yl]-N-formyl-2-methyl-N-(3-methyl-4,5-dihydroisoxazol-5-yl)benzamide]
≥ 80%: percent control (mortality, anti-feedant effect or growth inhibition) at 200 ppm (Spodoptera littoralis) | percent effect (mortality or growth inhibition) at 200 ppm (Plutella xylostella) | percent effect (mortality or growth inhibition) at 200 ppm (Diabrotica Balteata) | mortality at 200 ppm (Thrips tabaci) | mortality at 200 ppm (Tetranychus urticae) | mortality at 200 ppm (Myzus persicae)

CC1=NOC(N(C=O)C(=O)c2ccc(C3=NO[C@@](c4cc(Br)cc(C(F)(F)F)c4)(C(F)(F)F)C3)cc2C)C1 (stereo partly drawn) [Compound A040, 4-[(5S)-5-[3-bromo-5-(trifluoromethyl)phenyl]-5-(trifluoromethyl)-4H-isoxazol-3-yl]-N-formyl-2-methyl-N-(3-methyl-4,5-dihydroisoxazol-5-yl)benzamide]
≥ 80%: percent control (mortality, anti-feedant effect or growth inhibition) at 200 ppm (Spodoptera littoralis; [1]) | percent effect (mortality or growth inhibition) at 200 ppm (Plutella xylostella; [2]) | percent effect (mortality or growth inhibition) at 200 ppm (Diabrotica Balteata; [3]) | mortality at 200 ppm (Thrips tabaci; [4]) | mortality at 200 ppm (Tetranychus urticae; [5]) | mortality at 200 ppm (Myzus persicae; [6])

COC1=NOC(NC(=O)c2ccc(C3=NO[C@@](c4cc(Cl)c(Cl)c(Cl)c4)(C(F)(F)F)C3)cc2C)C1 (stereo partly drawn) [Compound A041]
≥ 80%: percent control (mortality, anti-feedant effect or growth inhibition) at 200 ppm (Spodoptera littoralis) | percent effect (mortality or growth inhibition) at 200 ppm (Plutella xylostella) | percent effect (mortality or growth inhibition) at 200 ppm (Diabrotica Balteata) | mortality at 200 ppm (Thrips tabaci) | mortality at 200 ppm (Tetranychus urticae) | mortality at 200 ppm (Myzus persicae)

COC1=NOC(NC(=O)c2ccc(C3=NO[C@@](c4cc(Cl)cc(C(F)(F)F)c4)(C(F)(F)F)C3)cc2C)C1 (stereo partly drawn) [Compound A042]
≥ 80%: percent control (mortality, anti-feedant effect or growth inhibition) at 200 ppm (Spodoptera littoralis) | percent effect (mortality or growth inhibition) at 200 ppm (Plutella xylostella) | percent effect (mortality or growth inhibition) at 200 ppm (Diabrotica Balteata) | mortality at 200 ppm (Thrips tabaci) | mortality at 200 ppm (Tetranychus urticae) | mortality at 200 ppm (Myzus persicae)

COC1=NOC(NC(=O)c2ccc(C3=NO[C@@](c4cc(Cl)c(Cl)c(Cl)c4)(C(F)(F)F)C3)cc2Cl)C1 (stereo partly drawn) [Compound A043]
≥ 80%: percent control (mortality, anti-feedant effect or growth inhibition) at 200 ppm (Spodoptera littoralis) | percent effect (mortality or growth inhibition) at 200 ppm (Plutella xylostella) | percent effect (mortality or growth inhibition) at 200 ppm (Diabrotica Balteata) | mortality at 200 ppm (Thrips tabaci) | mortality at 200 ppm (Tetranychus urticae) | mortality at 200 ppm (Myzus persicae)

COC1=NOC(NC(=O)c2ccc(C3=NO[C@@](c4cc(Br)cc(C(F)(F)F)c4)(C(F)(F)F)C3)cc2C)C1 (stereo partly drawn) [Compound A044]
≥ 80%: percent control (mortality, anti-feedant effect or growth inhibition) at 200 ppm (Spodoptera littoralis; [1]) | percent effect (mortality or growth inhibition) at 200 ppm (Plutella xylostella; [2]) | percent effect (mortality or growth inhibition) at 200 ppm (Diabrotica Balteata; [3]) | mortality at 200 ppm (Thrips tabaci; [4]) | mortality at 200 ppm (Tetranychus urticae; [5]) | mortality at 200 ppm (Myzus persicae; [6])

COC1=NOC(NC(=O)c2ccc(C3=NO[C@@](c4cc(Cl)c(F)c(Cl)c4)(C(F)(F)F)C3)cc2Cl)C1 (stereo partly drawn) [Compound A045]
≥ 80%: percent control (mortality, anti-feedant effect or growth inhibition) at 200 ppm (Spodoptera littoralis) | percent effect (mortality or growth inhibition) at 200 ppm (Plutella xylostella) | percent effect (mortality or growth inhibition) at 200 ppm (Diabrotica Balteata) | mortality at 200 ppm (Thrips tabaci) | mortality at 200 ppm (Tetranychus urticae) | mortality at 200 ppm (Myzus persicae)

CCOC1=NOC(NC(=O)c2ccc(C3=NO[C@@](c4cc(Cl)c(F)c(Cl)c4)(C(F)(F)F)C3)cc2C)C1 (stereo partly drawn) [Compound A046]
≥ 80%: percent control (mortality, anti-feedant effect or growth inhibition) at 200 ppm (Spodoptera littoralis) | percent effect (mortality or growth inhibition) at 200 ppm (Plutella xylostella) | percent effect (mortality or growth inhibition) at 200 ppm (Diabrotica Balteata) | mortality at 200 ppm (Thrips tabaci) | mortality at 200 ppm (Tetranychus urticae) | mortality at 200 ppm (Myzus persicae)

CCOC1=NOC(NC(=O)c2ccc(C3=NO[C@@](c4cc(Cl)cc(C(F)(F)F)c4)(C(F)(F)F)C3)cc2C)C1 (stereo partly drawn) [Compound A047]
≥ 80%: percent control (mortality, anti-feedant effect or growth inhibition) at 200 ppm (Spodoptera littoralis) | percent effect (mortality or growth inhibition) at 200 ppm (Plutella xylostella) | percent effect (mortality or growth inhibition) at 200 ppm (Diabrotica Balteata) | mortality at 200 ppm (Thrips tabaci) | mortality at 200 ppm (Tetranychus urticae) | mortality at 200 ppm (Myzus persicae)

CSC1=NOC(NC(=O)c2ccc(C3=NO[C@@](c4cc(Cl)cc(C(F)(F)F)c4)(C(F)(F)F)C3)cc2C)C1 (stereo partly drawn) [Compound A050]
≥ 80%: percent control (mortality, anti-feedant effect or growth inhibition) at 200 ppm (Spodoptera littoralis) | percent effect (mortality or growth inhibition) at 200 ppm (Plutella xylostella) | percent effect (mortality or growth inhibition) at 200 ppm (Diabrotica Balteata) | mortality at 200 ppm (Thrips tabaci) | mortality at 200 ppm (Tetranychus urticae) | mortality at 200 ppm (Myzus persicae)

CCSC1=NOC(NC(=O)c2ccc(C3=NO[C@@](c4cc(Cl)cc(C(F)(F)F)c4)(C(F)(F)F)C3)cc2C)C1 (stereo partly drawn) [Compound A051]
≥ 80%: percent control (mortality, anti-feedant effect or growth inhibition) at 200 ppm (Spodoptera littoralis) | percent effect (mortality or growth inhibition) at 200 ppm (Plutella xylostella) | percent effect (mortality or growth inhibition) at 200 ppm (Diabrotica Balteata) | mortality at 200 ppm (Thrips tabaci) | mortality at 200 ppm (Tetranychus urticae) | mortality at 200 ppm (Myzus persicae)
